Results from patent publication US20020026053A1, “Novel 3-(substituted) -2- indolinones compounds and use thereof as inhibitors of protein kinase activity” (priority 1997, published 2002).

Molecular target: T1, Met receptor (EGFR/Met chimeric cells, EMR) (Homo sapiens, UniProt P08581)
T1 construct: expressed in transfected cells; the other entry of the earlier key: EGFR (P00533, Epidermal growth factor receptor)
Assay: Met Autophosphorylation Assay
Assay type: biochemical
How it was run: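 Met phosphorylation was measured by capture ELISA. Lysates (90 μg/100 μl, HNTG plus 1 mM PMSF) from transiently transfected EGFR/Met chimera (EMR) cells were bound for 60 min at room temperature to wells holding rabbit anti-Met (C-28) on goat anti-rabbit coat. Phosphotyrosine was the read-out.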

T1 sequence (P08581 with tags, fused parts or gaps): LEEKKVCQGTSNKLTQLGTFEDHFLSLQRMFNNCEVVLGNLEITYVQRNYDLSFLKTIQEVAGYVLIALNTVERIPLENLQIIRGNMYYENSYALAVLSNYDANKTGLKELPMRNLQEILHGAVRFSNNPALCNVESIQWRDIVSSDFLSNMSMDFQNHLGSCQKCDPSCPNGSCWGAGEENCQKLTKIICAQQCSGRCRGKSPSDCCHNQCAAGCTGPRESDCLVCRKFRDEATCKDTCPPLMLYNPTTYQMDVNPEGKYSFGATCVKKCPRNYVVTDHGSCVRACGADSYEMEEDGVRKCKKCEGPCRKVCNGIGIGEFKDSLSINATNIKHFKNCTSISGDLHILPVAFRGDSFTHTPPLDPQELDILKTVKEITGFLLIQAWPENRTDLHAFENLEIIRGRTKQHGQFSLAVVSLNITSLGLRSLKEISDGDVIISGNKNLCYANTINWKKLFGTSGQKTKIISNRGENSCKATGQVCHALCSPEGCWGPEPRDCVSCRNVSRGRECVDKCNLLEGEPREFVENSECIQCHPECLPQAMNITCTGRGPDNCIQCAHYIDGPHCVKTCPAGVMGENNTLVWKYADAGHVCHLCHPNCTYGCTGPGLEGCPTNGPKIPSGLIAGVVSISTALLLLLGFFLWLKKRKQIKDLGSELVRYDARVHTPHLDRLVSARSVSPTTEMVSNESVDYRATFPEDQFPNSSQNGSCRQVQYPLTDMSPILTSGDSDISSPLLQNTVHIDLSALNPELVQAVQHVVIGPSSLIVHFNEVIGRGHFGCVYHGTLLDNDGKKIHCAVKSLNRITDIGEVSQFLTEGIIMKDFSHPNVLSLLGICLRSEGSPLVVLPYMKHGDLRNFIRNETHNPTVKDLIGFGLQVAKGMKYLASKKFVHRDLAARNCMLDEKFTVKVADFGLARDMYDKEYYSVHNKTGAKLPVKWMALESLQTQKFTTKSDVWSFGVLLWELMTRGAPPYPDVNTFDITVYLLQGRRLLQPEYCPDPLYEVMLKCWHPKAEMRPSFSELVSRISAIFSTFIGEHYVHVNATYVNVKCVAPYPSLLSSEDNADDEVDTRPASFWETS

**Q.** Which “Met Kinase % Inhibition (P.130)” value does the source give for O=C1Nc2ccc(S(=O)(=O)N3CCOCC3)cc2C1=Cc1cccc(F)c1O [10734/F08] here?
**A.** Its value is 66.3%.

**Q.** For CC(C)(C)c1ccc(C=C2C(=O)Nc3c(Br)cc(Br)cc32)cc1 [10734/A10], which “Met Kinase % Inhibition (P.130)” value is on record?
**A.** Its value is 55.4%.

**Q.** Which “Met Kinase % Inhibition (P.130)” value does the source give for COc1cc(Br)c(O)c(C=C2C(=O)Nc3c(Br)cc(Br)c(C)c32)c1 [10718/H03] here?
**A.** Its value is 90.8%.

**Q.** How did the “Met Kinase % Inhibition (P.130)” value turn out when O=C1Nc2ccc(CCCl)cc2C1=Cc1cc(Cl)cc(Cl)c1O [10734/G03] was run?
**A.** Its value is 93.4%.

**Q.** For O=C1Nc2ccc(I)cc2C1=Cc1cc(Br)cc(Br)c1O [10734/B07], which “Met Kinase % Inhibition (P.130)” value is on record?
**A.** Its value is 93.2%.

**Q.** For CCOc1cccc(C=C2C(=O)Nc3ccc(Br)c(C)c32)c1O [10734/C02], which “Met Kinase % Inhibition (P.130)” value is on record?
**A.** Its value is 78.6%.

**Q.** How did the “Met Kinase % Inhibition (P.130)” value turn out when CNS(=O)(=O)c1ccc2c(c1)C(=Cc1cccc(F)c1O)C(=O)N2 [10734/D08] was run?
**A.** The value was 49.8%.

**Q.** For Cc1c(Br)cc(Br)c2c1C(=Cc1ccc3ccccc3c1O)C(=O)N2 [10718/H04], which “Met Kinase % Inhibition (P.130)” value is on record?
**A.** Its value is 84.3%.

**Q.** For O=C1Nc2ccc(S(=O)(=O)Nc3ccc(C(F)(F)F)cc3)cc2C1=Cc1cc(Cl)ccc1O [10734/E04], which “Met Kinase % Inhibition (P.130)” value is on record?
**A.** The value was 88.9%.

**Q.** O=C1Nc2ccc(S(=O)(=O)Nc3ccc(C(F)(F)F)cc3)cc2C1=Cc1ccc(Br)s1 [10734/E11] was tested. Which “Met Kinase % Inhibition (P.130)” value did it give?
**A.** Its value is 67.1%.
